Publication PMC7382964 (Biochemical pharmacology, 2020)
Each block holds one molecule with its values, some of them ahead of it.

Key:
hA3AR [1] = target: T1, hA3AR (Homo sapiens, UniProt P0DMS8); test: miniGαi recruitment bioassay; type: cell-based
T1 sequence (P0DMS8 1-318): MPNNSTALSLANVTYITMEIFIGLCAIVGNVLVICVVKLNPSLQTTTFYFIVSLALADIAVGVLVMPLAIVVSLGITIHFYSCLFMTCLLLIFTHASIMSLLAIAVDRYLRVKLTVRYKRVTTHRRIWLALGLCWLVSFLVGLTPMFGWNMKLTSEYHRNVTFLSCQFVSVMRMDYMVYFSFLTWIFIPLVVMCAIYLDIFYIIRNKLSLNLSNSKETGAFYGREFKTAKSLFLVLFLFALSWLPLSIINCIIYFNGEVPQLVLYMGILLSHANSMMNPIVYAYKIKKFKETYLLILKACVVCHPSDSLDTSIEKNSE

hA3AR [2] = target: hA3AR (Homo sapiens, UniProt P0DMS8); test: βarr2 recruitment bioassay; type: cell-based
Target sequence in this assay (P32121 whole entry partner, one chain of several): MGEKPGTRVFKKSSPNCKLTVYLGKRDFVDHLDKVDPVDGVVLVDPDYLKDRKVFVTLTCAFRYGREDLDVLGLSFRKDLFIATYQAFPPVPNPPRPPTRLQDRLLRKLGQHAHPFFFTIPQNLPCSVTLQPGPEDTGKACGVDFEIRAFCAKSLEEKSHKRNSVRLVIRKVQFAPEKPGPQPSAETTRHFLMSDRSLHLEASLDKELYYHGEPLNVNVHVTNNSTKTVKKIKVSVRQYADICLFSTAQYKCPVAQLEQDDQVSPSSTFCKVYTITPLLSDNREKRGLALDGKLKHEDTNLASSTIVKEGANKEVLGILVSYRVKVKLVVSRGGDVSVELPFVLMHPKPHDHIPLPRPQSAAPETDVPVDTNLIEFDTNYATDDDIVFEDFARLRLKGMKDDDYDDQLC

A3AR [3] = details: cited from earlier work
cannabinoid receptor CB1 [4] = target: T2, cannabinoid receptor CB1 (Homo sapiens, UniProt P21554); test: miniGαi coupling assay with CB1 cannabinoid receptor; type: cell-based; details: 5 μM
cannabinoid receptor CB1 [5] = target: T2, cannabinoid receptor CB1; test: βarr2 recruitment assay with CB1 cannabinoid receptor; type: cell-based; details: 5 μM
A3AR [6] = details: Gao et al.; cited from earlier work
A3AR [7] = details: Gao et al.; cited from earlier work; remark: listed apart in the source
[8] = 90 min read-out, AUC, normalized to NECA
[9] = addition of 2-chloro substituent

T2 sequence (P21554 whole entry): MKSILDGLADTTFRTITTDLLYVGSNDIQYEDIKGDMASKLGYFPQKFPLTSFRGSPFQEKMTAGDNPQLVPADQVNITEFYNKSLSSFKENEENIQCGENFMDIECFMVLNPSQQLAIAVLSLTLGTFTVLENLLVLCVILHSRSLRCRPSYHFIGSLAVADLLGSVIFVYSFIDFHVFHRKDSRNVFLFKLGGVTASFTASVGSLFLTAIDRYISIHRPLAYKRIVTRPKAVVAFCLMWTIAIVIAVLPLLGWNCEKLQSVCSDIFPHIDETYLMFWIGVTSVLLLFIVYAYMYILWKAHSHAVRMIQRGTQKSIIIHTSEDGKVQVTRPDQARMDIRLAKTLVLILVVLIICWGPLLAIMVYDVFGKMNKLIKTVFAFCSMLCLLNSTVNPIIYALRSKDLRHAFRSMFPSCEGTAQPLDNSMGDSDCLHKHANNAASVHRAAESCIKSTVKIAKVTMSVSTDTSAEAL

EC50 (hA3AR [1]; read-out: EC50, miniGαi recruitment, 90 min read-out, AUC, normalized to NECA): 433 nM | EC50 (hA3AR [2]; read-out: EC50, βarr2 recruitment, 90 min read-out, AUC, normalized to NECA): 669 nM
SMILES: CC(C)Nc1ncnc2c1ncn2[C@@H]1O[C@H](CO)[C@H](O)C1O (stereo partly shown) [compound 10]

EC50, miniGαi recruitment (hA3AR [1]; [8]): micromolar range | EC50, βarr2 recruitment (hA3AR [2]; [8]): micromolar range
SMILES: OCC1OC(n2cnc3c(NC4CCc5ccccc54)ncnc32)C(O)C1O (stereo not shown) [compound 17]

SMILES: OC[C@H]1O[C@@H](n2cnc3c(NCC(c4ccccc4)c4ccccc4)ncnc32)[C@H](O)[C@@H]1O [compound 19]
functional class in the cAMP pathway (A3AR [3]; Tchilibon et al.): antagonist

signal in miniGαi coupling assay with CB1-LgBiT (cannabinoid receptor CB1 [4]): unable to generate a signal | signal in βarr2 recruitment assay with CB1-LgBiT (cannabinoid receptor CB1 [5]): unable to generate a signal
SMILES: OC[C@H]1O[C@@H](n2cnc3c(N[C@H]4C[C@@H]4c4ccccc4)ncnc32)[C@H](O)[C@@H]1O [compound 1, N^6-((1S,2R)-2-phenyl-1-cyclopropyl)-adenosine]

fold increased potency versus compound 8, miniGαi (hA3AR [1]; [9]): approximately five | fold increased potency versus compound 8, βarr2 (hA3AR [2]; [9]): approximately five
SMILES: CC(Cc1ccccc1)Nc1nc(Cl)nc2c1ncn2C1OC(CO)C(O)C1O (stereo not shown) [compound 9]

fold reduction in potency versus compound 1, miniGαi (hA3AR [1]; inversion to 1R,2S orientation): ~100 fold | fold reduction in potency versus compound 1, βarr2 (hA3AR [2]; inversion to 1R,2S orientation): 40 fold
SMILES: OCC1OC(n2cnc3c(NC4CC4c4ccccc4)ncnc32)C(O)C1O (stereo not shown) [compound 2]

SMILES: OCC1OC(n2cnc3c(NC4CCCCC4c4ccccc4)ncnc32)C(O)C1O (stereo not shown) [compound 4]
receptor activation signal, miniGαi bioassay (hA3AR [1]): no clear activation signal | receptor activation signal, βarr2 bioassay (hA3AR [2]): no clear activation signal

SMILES: CNC(=O)[C@H]1O[C@@H](n2cnc3c(NCc4cccc(I)c4)nc(Cl)nc32)[C@H](O)[C@@H]1O [2-Cl-IB-MECA, 2-chloro-N^6-(3-iodobenzyl)-5′-N-methylcar-boxamidoadenosine]
agonist class in calcium mobilization assay (A3AR [6]): partial agonist | agonist class in PathHunter assay for βarr2 recruitment (A3AR [7]): full agonist

receptor activation signal, miniGαi bioassay (hA3AR [1]): could not be measured | receptor activation signal, βarr2 bioassay (hA3AR [2]): could not be measured
SMILES: CC(C)C(Nc1ncnc2c1ncn2C1OC(CO)C(O)C1O)C(C)C (stereo not shown) [compound 12]

EC50, miniGαi recruitment (hA3AR [1]; [8]): micromolar range | EC50, βarr2 recruitment (hA3AR [2]; [8]): micromolar range
SMILES: OC[C@H]1O[C@@H](n2cnc3c(NCc4ccco4)ncnc32)[C@H](O)[C@@H]1O [compound 14]

EC50, miniGαi recruitment (hA3AR [1]; [8]): micromolar range | EC50, βarr2 recruitment (hA3AR [2]; [8]): micromolar range
SMILES: OCC1OC(n2cnc3c(NCc4cccs4)ncnc32)C(O)C1O (stereo not shown) [compound 15]

receptor activation signal, miniGαi bioassay (hA3AR [1]): same observation | receptor activation signal, βarr2 bioassay (hA3AR [2]): same observation
SMILES: OCC1OC(n2cnc3c(NC(C4CC4)C4CC4)ncnc32)C(O)C1O (stereo not shown) [compound 13]
